Measurements published in patent publication US20140142023A1, “Pharmaceutical Composition for Treating A Metabolic Syndrome” (SANOFI, priority 2011, published 2014).
Ends that are not written are not given here.

How the values were obtained:
[1] = tested on: db/db mice; test: Fed blood glucose in db/db mice (age of 6 weeks); assay type: in vivo; conditions: fed conditions, up to 4 weeks, AVE0010 0.05, FGF-21 0.75 mg/kg/day s.c. or combined
Method: (§1) Female db/db mice (BKS.Cg-m+/+Leprdb/J, age of 6 weeks) were treated with vehicle (PBS), 0.05 mg·kg^−1·day^−1 AVE0010, 0.75 mg·kg^−1·day^−1 recombinant human FGF-21 (SEQ ID NO: 2) or a combined dose of FGF-21 (SEQ ID NO: 2) and AVE0010 (0.75+0.05 mg·kg^−1·day^−1) subcutaneously once daily. Mice were fed ad libitum. Before the first treatment, after one week and 4 weeks blood glucose and HbA1c were measured under fed conditions. After 21 days of treatment an oral glucose tolerance test (OGTT) was initiated. Fasted mice were orally challenged with 2 g·kg^−1 glucose solution and blood glucose was measured at indicated time points.

[2] = tested on: db/db mice; test: Oral glucose tolerance test (OGTT) in db/db mice after 21 days; assay type: in vivo; conditions: after 21 days of treatment, 2 g/kg oral glucose, vs vehicle treated obese control
Method: as §1

[3] = tested on: Type 2 diabetic patients; conditions: doses elevating plasma concentrations to approximately 3-4 fold physiological postprandial levels (Nauck 1997); cited from earlier work

**Q.** Which blood glucose [1] does the source give for “AVE0010: GLP-1R agonist, SEQ ID NO: 9; sequence identical to lixisenatide SEQ ID NO: 8 [reference compound]” here?
**A.** Its blood glucose is “inhibition of blood glucose increase”.

**Q.** What about the “glucose tolerance (OGTT)” value [2] of the same substance?
**A.** Its value is “small improvement”.

**Q.** With “GLP-1(7-36 amide): bioactive GLP-1, SEQ ID NO: 4 (HAEGTFTSDVSSYLEGQAAKEFIAWLVKGR-NH2)” as the substance, how does the fasting hyperglycaemia [3] read?
**A.** Its fasting hyperglycaemia is “fully normalizes”.

**Q.** With “GLP-1(7-27): bioactive GLP-1; probably GLP-1(7-37), SEQ ID NO: 3 (HAEGTFTSDVSSYLEGQAAKEFIAWLVKGRG; Fragment of human GLP-1 (7 to 37))” as the substance, how does the fasting hyperglycaemia [3] read?
**A.** The fasting hyperglycaemia was “fully normalizes”.
